Measurements reported in ChEMBL document CHEMBL1909046, “DrugMatrix in vitro pharmacology data”.

Columns and labels:
[1] = target: Vascular endothelial growth factor receptor 1 (Homo sapiens, UniProt P17948); test: biochemical; type: cell-based, HUVEC; conditions: huvec; note: in other assays of this panel Not Active means under 50% inhibition at 10 µM
[2] = target: Tyrosine-protein kinase Fyn (Homo sapiens, UniProt P06241); test: biochemical; type: cell-based, Insect cells;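 note: enzymatic inhibition of Fyn kinase activity measured with Poly(Glu:Tyr) as the phosphorylation substrate; in other assays of this panel Not Active means under 50% inhibition at 10 µM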
[3] = DRUGMATRIX: Glutamate, NMDA, Agonism radioligand binding (ligand: [3H] CGP-39653); type: cell membranes, Rattus norvegicus, Wistar, Cerebral cortex, Membrane; conditions: Not Active = under 50% inhibition at 10 µM
Cathepsin G = target: T1, Cathepsin G (Homo sapiens, UniProt P08311); type: tissue-based; conditions: neutrophil;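 note: inhibition of Cathepsin G enzyme activity, tested on an AMC-conjugated peptide substrate; in other assays of this panel Not Active means under 50% inhibition at 10 µM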
T1 sequence (P08311 whole entry): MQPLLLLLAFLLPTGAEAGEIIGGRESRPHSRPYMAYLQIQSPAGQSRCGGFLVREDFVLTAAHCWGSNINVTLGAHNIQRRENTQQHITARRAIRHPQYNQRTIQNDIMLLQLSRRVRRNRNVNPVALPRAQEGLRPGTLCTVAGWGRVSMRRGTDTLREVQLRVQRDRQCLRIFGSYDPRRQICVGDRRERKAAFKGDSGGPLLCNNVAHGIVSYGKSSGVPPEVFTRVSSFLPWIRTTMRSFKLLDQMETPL

[4] = target: T2, Alpha-1D adrenergic receptor (Homo sapiens, UniProt P25100); type: cell membranes, HEK293, Membrane; note: in other assays of this panel Not Active means under 50% inhibition at 10 µM
T2 sequence (P25100 whole entry): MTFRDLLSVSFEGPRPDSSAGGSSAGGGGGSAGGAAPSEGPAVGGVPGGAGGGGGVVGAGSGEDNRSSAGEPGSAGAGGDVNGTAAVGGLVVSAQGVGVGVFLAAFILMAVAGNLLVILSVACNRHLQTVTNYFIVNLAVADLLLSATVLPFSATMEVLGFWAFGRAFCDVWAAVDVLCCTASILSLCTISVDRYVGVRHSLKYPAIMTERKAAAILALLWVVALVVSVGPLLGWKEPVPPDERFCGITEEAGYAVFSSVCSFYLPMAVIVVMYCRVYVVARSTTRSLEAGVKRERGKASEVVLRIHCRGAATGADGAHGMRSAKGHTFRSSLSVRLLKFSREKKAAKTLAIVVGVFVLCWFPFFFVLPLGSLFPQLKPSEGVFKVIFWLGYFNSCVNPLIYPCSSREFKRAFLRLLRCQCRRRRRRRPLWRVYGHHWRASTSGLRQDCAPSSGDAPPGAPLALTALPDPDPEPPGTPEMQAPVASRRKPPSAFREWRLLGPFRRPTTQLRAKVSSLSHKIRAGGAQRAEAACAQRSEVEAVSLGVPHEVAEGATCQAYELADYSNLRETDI

Cytochrome P450 2C19 = Cytochrome P450 2C19 (Homo sapiens, UniProt P33261); conditions: bti-tn-5b1-4; note: in other assays of this panel Not Active means under 50% inhibition at 10 µM
Sequence of Cytochrome P450 2C19 (P33261 whole entry): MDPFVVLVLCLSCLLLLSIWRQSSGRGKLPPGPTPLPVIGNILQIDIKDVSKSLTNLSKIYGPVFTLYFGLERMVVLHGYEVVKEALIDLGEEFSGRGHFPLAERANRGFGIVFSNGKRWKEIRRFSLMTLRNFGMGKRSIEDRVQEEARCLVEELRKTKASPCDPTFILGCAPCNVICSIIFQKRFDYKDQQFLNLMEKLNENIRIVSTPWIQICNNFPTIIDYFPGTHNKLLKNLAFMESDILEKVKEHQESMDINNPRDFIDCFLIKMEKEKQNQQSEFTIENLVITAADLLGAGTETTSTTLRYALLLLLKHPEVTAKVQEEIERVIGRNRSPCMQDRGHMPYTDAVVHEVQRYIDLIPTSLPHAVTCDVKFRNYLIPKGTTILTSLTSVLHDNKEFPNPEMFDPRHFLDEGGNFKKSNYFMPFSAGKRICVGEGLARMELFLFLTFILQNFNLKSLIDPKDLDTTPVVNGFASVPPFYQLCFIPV

Sequence of Vascular endothelial growth factor receptor 1 (P17948 whole entry): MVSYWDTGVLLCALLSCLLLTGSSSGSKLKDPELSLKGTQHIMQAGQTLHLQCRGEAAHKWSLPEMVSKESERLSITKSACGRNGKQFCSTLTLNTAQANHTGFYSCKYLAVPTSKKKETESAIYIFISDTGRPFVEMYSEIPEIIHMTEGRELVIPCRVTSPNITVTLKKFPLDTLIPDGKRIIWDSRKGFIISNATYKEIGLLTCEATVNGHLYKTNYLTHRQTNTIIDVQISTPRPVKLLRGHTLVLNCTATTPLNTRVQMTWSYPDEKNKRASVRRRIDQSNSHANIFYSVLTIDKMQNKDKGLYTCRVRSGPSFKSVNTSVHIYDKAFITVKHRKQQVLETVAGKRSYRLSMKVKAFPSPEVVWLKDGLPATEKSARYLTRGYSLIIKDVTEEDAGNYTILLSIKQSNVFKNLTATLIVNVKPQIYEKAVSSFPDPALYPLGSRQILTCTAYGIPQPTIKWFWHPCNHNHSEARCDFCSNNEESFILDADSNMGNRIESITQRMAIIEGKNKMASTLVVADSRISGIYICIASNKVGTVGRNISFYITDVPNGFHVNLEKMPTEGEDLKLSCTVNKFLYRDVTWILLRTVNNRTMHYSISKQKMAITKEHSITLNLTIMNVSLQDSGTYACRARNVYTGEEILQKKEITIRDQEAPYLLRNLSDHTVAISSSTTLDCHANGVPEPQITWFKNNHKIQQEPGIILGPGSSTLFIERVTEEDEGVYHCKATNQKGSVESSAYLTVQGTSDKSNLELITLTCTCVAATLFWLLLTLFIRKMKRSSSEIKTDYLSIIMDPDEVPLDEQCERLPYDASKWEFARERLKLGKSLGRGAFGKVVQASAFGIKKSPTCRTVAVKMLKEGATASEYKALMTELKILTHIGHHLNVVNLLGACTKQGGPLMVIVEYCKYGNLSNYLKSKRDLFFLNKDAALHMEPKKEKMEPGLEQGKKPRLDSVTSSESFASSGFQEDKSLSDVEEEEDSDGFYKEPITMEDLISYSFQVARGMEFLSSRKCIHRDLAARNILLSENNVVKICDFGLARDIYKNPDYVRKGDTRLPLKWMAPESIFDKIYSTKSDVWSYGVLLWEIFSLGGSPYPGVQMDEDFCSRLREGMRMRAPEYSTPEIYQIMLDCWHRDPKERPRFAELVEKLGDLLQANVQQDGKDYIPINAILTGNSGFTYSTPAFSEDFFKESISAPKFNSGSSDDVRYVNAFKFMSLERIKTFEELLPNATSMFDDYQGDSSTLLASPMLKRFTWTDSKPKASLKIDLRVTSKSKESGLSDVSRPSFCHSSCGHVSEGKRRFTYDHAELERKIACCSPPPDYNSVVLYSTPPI
Sequence of Tyrosine-protein kinase Fyn (P06241 whole entry): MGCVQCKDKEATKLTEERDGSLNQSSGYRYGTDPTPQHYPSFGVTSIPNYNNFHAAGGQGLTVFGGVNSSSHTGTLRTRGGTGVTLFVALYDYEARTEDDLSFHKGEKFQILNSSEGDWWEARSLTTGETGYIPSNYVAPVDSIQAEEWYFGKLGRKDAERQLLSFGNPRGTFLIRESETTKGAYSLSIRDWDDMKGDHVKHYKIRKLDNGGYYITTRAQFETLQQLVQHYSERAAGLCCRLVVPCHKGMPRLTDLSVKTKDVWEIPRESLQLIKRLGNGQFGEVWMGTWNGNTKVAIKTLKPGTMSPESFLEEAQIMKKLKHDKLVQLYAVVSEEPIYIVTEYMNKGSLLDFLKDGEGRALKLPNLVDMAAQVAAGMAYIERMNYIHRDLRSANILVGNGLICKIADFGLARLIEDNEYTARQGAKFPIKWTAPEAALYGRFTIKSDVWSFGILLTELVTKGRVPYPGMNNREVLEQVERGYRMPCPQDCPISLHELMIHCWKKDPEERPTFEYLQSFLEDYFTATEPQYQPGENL

Row | Compound | IC50 [1] | IC50 ([2]; insect cells) | IC50 [3] | Ki [3] | IC50 (Cathepsin G) | IC50 ([4]; hek293) | IC50 ([2]; read-out: IC50) [µM] | IC50 (Cytochrome P450 2C19) | Ki (Cytochrome P450 2C19) | Ki [4] [µM] | IC50 ([4]; read-out: IC50) [µM]
1 | COc1ccc(C(=O)N2CCCC2=O)cc1 | Not Active | Not Active | Not Active | Not Active | Not Active | Not Active | – | – | – | – | –
2 | C[C@@H]1C[C@H]2[C@@H]3CCC4=CC(=O)C=C[C@]4(C)[C@@]3(F)[C@@H](O)C[C@]2(C)[C@@]1(O)C(=O)CO [DEXAMETHASONE] | Not Active | Not Active | Not Active | Not Active | Not Active | Not Active | – | – | – | – | –
3 | O=C(c1ccccc1C(F)(F)F)N1CCC(Cc2ccccc2)CC1 | Not Active | Not Active | Not Active | Not Active | Not Active | Not Active | – | – | – | – | –
4 | Cc1c(OCC(F)(F)F)ccnc1C[S+]([O-])c1nc2ccccc2[nH]1 (stereo not drawn) [LANSOPRAZOLE] | Not Active | Not Active | Not Active | Not Active | Not Active | Not Active | – | – | – | – | –
5 | Nc1ccn([C@@H]2O[C@H](CO)[C@@H](O)[C@@H]2O)c(=O)n1 [CYTARABINE] | Not Active | Not Active | Not Active | Not Active | Not Active | Not Active | – | – | – | – | –
6 | CC(C)c1cccc(C(C)C)c1O [PROPOFOL] | Not Active | Not Active | Not Active | Not Active | Not Active | Not Active | – | – | – | – | –
7 | CC(=O)O[C@H]1C(=O)[C@@]2(C)[C@H]([C@H](OC(=O)c3ccccc3)[C@]3(O)C[C@H](OC(=O)[C@H](O)[C@@H](NC(=O)c4ccccc4)c4ccccc4)C(C)=C1C3(C)C)[C@]1(OC(C)=O)CO[C@@H]1C[C@@H]2O [PACLITAXEL] | Not Active | – | Not Active | Not Active | Not Active | Not Active | 23.9 | – | – | – | –
8 | CCCNCC(O)COc1ccccc1C(=O)CCc1ccccc1 (stereo not drawn) [PROPAFENONE] | Not Active | Not Active | Not Active | Not Active | Not Active | Not Active | – | – | – | – | –
9 | COc1ccc2[nH]cc(CCNC(C)=O)c2c1 [MELATONIN] | Not Active | Not Active | Not Active | Not Active | Not Active | Not Active | – | – | – | – | –
10 | CC(C)NCC(O)COc1cccc2[nH]ccc12 (stereo not drawn) [PINDOLOL] | Not Active | Not Active | Not Active | Not Active | Not Active | Not Active | – | – | – | – | –
11 | O=C(N/N=C/c1ccc([N+](=O)[O-])o1)c1cc([N+](=O)[O-])cc([N+](=O)[O-])c1O [NIFURSOL] | Not Active | Not Active | Not Active | Not Active | Not Active | Not Active | – | – | – | – | –
12 | COc1cc2nc(N3CCN(C(=O)c4ccco4)CC3)nc(N)c2cc1OC [PRAZOSIN] | Not Active | Not Active | Not Active | Not Active | Not Active | – | – | Not Active | Not Active | – | –
13 | COc1cc([C@@H]2c3cc4c(cc3[C@@H](O[C@@H]3O[C@@H]5CO[C@@H](C)O[C@H]5[C@H](O)[C@H]3O)[C@H]3COC(=O)[C@H]23)OCO4)cc(OC)c1O [ETOPOSIDE] | Not Active | Not Active | Not Active | Not Active | Not Active | Not Active | – | – | – | – | –
14 | COc1ccc2c3c1O[C@H]1C[C@@H](O)C=C[C@@]31CCN(C)C2 [GALANTAMINE] | Not Active | Not Active | Not Active | Not Active | Not Active | Not Active | – | – | – | – | –
15 | CN1[C@@H]2CC[C@H]1C[C@@H](OC(=O)C(CO)c1ccccc1)C2 (stereo partly drawn) [ATROPINE] | Not Active | Not Active | Not Active | Not Active | Not Active | – | – | – | – | 0.666 | 1.35
16 | CC[C@H]1CN2CCc3cc(OC)c(OC)cc3[C@@H]2C[C@@H]1C[C@H]1NCCc2cc(OC)c(OC)cc21 [EMETINE] | Not Active | Not Active | Not Active | Not Active | Not Active | Not Active | – | – | – | – | –
